This note sets out measurements from US20120225119A1, “THERAPEUTIC COMBINATION FOR PAINFUL MEDICAL CONDITIONS” (UCB Pharma GmbH, priority 2005, published 2012).

Entries after “also recorded” stand apart in the source; their conditions may differ.

The test system of assay [1] is formalin-induced flinching and licking of the affected paw. Description: Rat formalin paw test (late phase). To be noted: for effect on time spent licking: lacosamide 10 mg/kg i.p. The class given is in vivo. The method, then:
Rats were given an intraplantar injection of 5% formalin (50 μl) into the posterior left paw. This treatment induces a recognizable flinching and licking response of the affected paw in control animals. The number of flinches was counted for 15 minutes, beginning 20 minutes after injection of formalin. The time spent licking the affected paw was also recorded.
Male Rj: Wistar (Han) rats, 10 per group, weighing 100-130 g at the beginning of the experiments were studied per group. The test was performed blind. […]
Lacosamide (10 and 20 mg/kg), memantine (4 and 8 mg/kg), combinations of lacosamide (10 and 20 mg/kg) with memantine (4 and 8 mg/kg), and vehicle were administered i.p. 10 minutes before injection of formalin.
Lacosamide (10 and 20 mg/kg), naproxen (8 and 16 mg/kg), combinations of lacosamide (10 and 20 mg/kg) with […] (8 and 16 mg/kg), and vehicle were administered i.p. 10 minutes before injection of formalin. Morphine (8 mg/kg) was included as a comparative treatment.

Assay [2] has as its system muscle pressure hyperalgesia induced by TNF. Briefly: Withdrawal threshold to muscle pressure (Randall-Selitto) after TNF injection into gastrocnemius muscle. The format is in vivo, rat. To be noted: for full reversal of the muscle hyperalgesia: pregabalin 30 and 100 mg/kg. The method, then: (§1) Adult male Sprague Dawley rats with a body weight of 250 g to 300 g were used (supplier: Charles River, Sulzfeld, Germany). Animals were group-housed (3 animals per cage) and maintained in a room with controlled temperature (21-22° C.) and a reversed light-dark cycle (12 h/12 h) with food and water available ad libitum. All experiments were approved by the Bavarian State animal experimentation committee and carried out in accordance with its regulations.
(§2) Recombinant rat tumor necrosis factor alpha (herein referred to as TNF) was obtained from R&D Systems, Minneapolis, Minn., U.S.A. TNF was diluted in 0.9% NaCl and used in a concentration of 1 μg in 50 μl. Injections were performed in short halothane narcosis with a 30 g needle bilaterally into the gastrocnemius or into the biceps brachii muscle. All rats were used to the behavioral tests before injections and baseline values were recorded over three test days.
Mechanical withdrawal thresholds to muscle pressure were measured with an analgesimeter (Ugo Basile, Comerio, Italy). The rat was allowed to crawl into a sock which helps the rat to relax. The hind limbs were positioned such that an increasing pressure could be applied onto the gastrocnemius muscle (maximum 250 g). The pressure needed to elicit withdrawal was recorded. Means of 3 trials for each hind limb were calculated (interstimulus interval of >30 sec). Only animals with a significant TNF effect were included for further analysis.
Rats were injected with TNF into the gastrocnemius muscle at 2 pm. Eighteen hours later, rats were tested for pressure hyperalgesia pre- and post-administration of the test drug. Rats were tested for pressure hyperalgesia 30 to 60 minutes after drug administration.
(§3) The rats, initially 10 per group, were treated with either 3, 10 or 30 mg/kg lacosamide, 2 mg/kg metamizol, 30 or 100 mg/kg pregabalin, 100 mg/kg gabapentin, or the NaCl vehicle, i.p. (intraperitoneally). Volume of i.p. injections was 0.5 ml. A pilot study was performed to confirm that i.m. (intramuscular) injection of 1 μg TNF into the gastrocnemius muscle was sufficient to induce pressure hyperalgesia.
(§4) Data are shown in graphs displaying means and standard errors of the means (SEM). Pre- and post-treatment data were compared using ANOVA (analysis of variance) and a Tukey post hoc test. Means of treatment groups were compared using a one-way ANOVA and Dunnett's post hoc test. Maximal possible effects (MPE) were calculated for all types of treatment.

Assay [3] deals with TNF-induced reduction of grip strength. Description: Biceps muscle grip strength after TNF-induced muscle pain. The class given is in vivo, rat. As to the method: as §1, §2
Grip strength of the forelimbs was tested with a digital grip force meter (DFIS series, Chatillon, Greensboro, N.C., U.S.A.). The rat was positioned to grab the grid with the forelimbs and was gently pulled so that the grip strength could be recorded. Means of three trials were calculated. The effect of the TNF treatment was calculated for each animal separately and only animals with a significant TNF effect were included for further analysis.
Rats were injected with TNF into the biceps brachii muscle at 8 am. Six hours later, grip strength of the forelimbs was tested with a digital grip force meter. Test drug was administered, and grip strength was again tested after 30 to 60 minutes.
as §3, §4

Assay [4] relates to monosodium iodoacetate-induced tactile allodynia. Description: Tactile allodynia (von Frey filaments) in iodoacetate rat model of osteoarthritis. The format is in vivo. Conditions: day 3 and day 7.
The subject of assay [5] is monosodium iodoacetate-induced mechanical hyperalgesia. Briefly: Mechanical hyperalgesia (Randall-Selitto paw pressure) in iodoacetate rat model of osteoarthritis. The format is in vivo. Conditions: for paw pressure withdrawal threshold compared to iodoacetate/vehicle treated animals: day 3.
Where [6] appears, read: pregabalin 30 and 100 mg/kg i.p.
[7] abbreviates: lacosamide 10 and 30 mg/kg i.p.

Consider `CC12CC3CC(C)(C1)CC(N)(C3)C2` [Memantine], for which the “effect on number of flinches as compared with vehicle controls” value in assay [1] (Example 6, memantine 4 and 8 mg/kg i.p.) is “did not clearly affect”.

With `CC(C)C[C@H](CN)CC(=O)O` [pregabalin], in assay [2] (setting [6]), the “MPE (maximal possible effect) on muscle pressure hyperalgesia, FIG. 2” value (“MPE (maximal possible effect) … FIG. 2” below) is recorded as “significantly different from vehicle” and the “reversal of muscular mechanical hyperalgesia (withdrawal threshold to muscle pressure)” value was “significant reversal”. Further, the “full reversal of the muscle hyperalgesia” value in assay [2] (gabapentin 100 mg/kg i.p.) is “Neither pregabalin nor gabapentin led to a full reversal”. Moreover, in assay [3] (100 mg/kg i.p.), the “MPE (maximal possible effect) on biceps muscle grip strength, FIG. 4” value (“MPE (maximal possible effect) … FIG. 4” below) was “significantly different from vehicle” and the “reversal of TNF-induced reduction of grip strength” value is listed as “significant reversal; also recorded: improved grip strength”.

For the molecule `COc1ccc2cc([C@H](C)C(=O)O)ccc2c1` [Naproxen], the “effect on number of flinches or time spent licking as compared with vehicle controls” value in assay [1] (Example 7, naproxen 8 and 16 mg/kg i.p.) is “did not clearly affect”.

Consider `NCC1(CC(=O)O)CCCCC1` [Gabapentin], for which, in assay [2] (gabapentin 100 mg/kg i.p.), the “MPE (maximal possible effect) … FIG. 2” value is reported as “significantly different from vehicle”; the “reversal of muscular mechanical hyperalgesia (withdrawal threshold to muscle pressure)” value is “significant reversal”; the “full reversal of the muscle hyperalgesia” value is “Neither pregabalin nor gabapentin led to a full reversal”. In assay [3] (100 mg/kg i.p.), the “MPE (maximal possible effect) … FIG. 4” value is recorded as “significantly different from vehicle” and the “reversal of TNF-induced reduction of grip strength” value was “significant reversal; also recorded: improved grip strength”.

As to `Cc1c(N(C)CS(=O)(=O)[O-])c(=O)n(-c2ccccc2)n1C.[Na+]` [metamizol], in assay [2] (metamizol 2 mg/kg i.p.), the “MPE (maximal possible effect) … FIG. 2” value is listed as “significantly different from vehicle” and the “reversal of muscular mechanical hyperalgesia (withdrawal threshold to muscle pressure)” value is reported as “complete reversal”. For the same molecule, in assay [3] (metamizol 2 mg/kg i.p.), the “MPE (maximal possible effect) … FIG. 4” value was “significantly different from vehicle” and the “reversal of TNF-induced reduction of grip strength” value is “significant reversal”.

In the case of `CN1CC[C@]23c4c5ccc(O)c4O[C@H]2[C@@H](O)C=C[C@H]3[C@H]1C5` [Morphine], the “tactile allodynia of iodoacetate-treated rats” value in assay [4] (morphine 3 mg/kg s.c.) was “improved”. Besides, in assay [5] (morphine 3 mg/kg s.c.), the “paw pressure withdrawal threshold compared to iodoacetate/vehicle treated animals” value is given as “increase in paw pressure withdrawal threshold”. Moreover, in assay [5] (morphine 3 mg/kg s.c., day 7), the mechanical hyperalgesia entry is recorded as “reduced mechanical hyperalgesia”. The “effect on number of flinches and time spent licking as compared with vehicle controls” value in assay [1] (Example 4, morphine 2 and 4 mg/kg i.p., effects did not reach statistical significance) is “dose-dependently decreased”. For the same molecule, the “effect on flinching and time spent licking as compared with vehicle controls” value in assay [1] (Example 7, morphine 8 mg/kg i.p.) is “eliminated flinching and the time spent licking”.

Consider `COC[C@@H](NC(C)=O)C(=O)NCc1ccccc1` [Lacosamide, (R)-2-acetamido-N-benzyl-3-methoxypropionamide], for which, in assay [2] (lacosamide 30 mg/kg i.p., 30 to 60 minutes after drug), the “reversal of muscular mechanical hyperalgesia (withdrawal threshold to muscle pressure)” value is reported as “complete reversal; also recorded: full reversal”. For the same molecule, in assay [2] (lacosamide 3, 10 and 30 mg/kg i.p.), the “muscle hyperalgesia induced by TNF injection in the paw pressure test” value is “dose-dependently improved”. Besides, the “MPE (maximal possible effect) … FIG. 2” value in assay [2] (setting [7]) is given as “significantly different from vehicle”. The “grip strength test indicative of mechanical allodynia” value in assay [3] (lacosamide 10 mg/kg i.p.) is listed as “reversed the effect of TNF”. The “MPE (maximal possible effect) … FIG. 4” value in assay [3] (setting [7]) is given as “significantly different from vehicle”. Also, the “reversal of TNF-induced reduction of grip strength” value in assay [3] (setting [7]) is recorded as “significant reversal”. Moreover, the “tactile allodynia of iodoacetate-treated rats” value in assay [4] (lacosamide 30 mg/kg p.o.) is reported as “improved”. In addition, in assay [5] (lacosamide 3 mg/kg p.o.), the “paw pressure withdrawal threshold compared to iodoacetate/vehicle treated animals” value was “increase in paw pressure withdrawal threshold”. Further, the mechanical hyperalgesia entry in assay [5] (lacosamide 10 mg/kg p.o., day 14) is recorded as “did not show a statistically significant effect”; in assay [5] (lacosamide at all doses tested (3, 10 and 30 mg/kg p.o.), day 7), “reduced mechanical hyperalgesia”. Further, the “mechanical hyperalgesia during the post-inflammatory period” value in assay [5] (lacosamide p.o.) is reported as “inhibited mechanical hyperalgesia”. Also, the “effect on time spent licking” value in assay [1] (Example 6) and in assay [1] (Example 7) was “no clear effects” in each case. Besides, the “effect on number of flinches as compared with vehicle controls” value in assay [1] (Example 7, lacosamide 10 and 20 mg/kg i.p.) is reported as “did not clearly affect”.

Take `O=C(O)Cc1ccccc1Nc1c(Cl)cccc1Cl` [diclofenac]: in assay [5] (diclofenac 30 mg/kg s.c.), the “paw pressure withdrawal threshold compared to iodoacetate/vehicle treated animals” value is “increase in paw pressure withdrawal threshold”. Also, the mechanical hyperalgesia entry in assay [5] (diclofenac 30 mg/kg s.c., day 7) is listed as “reduced mechanical hyperalgesia”.
